Measurements reported in patent publication US20080044829A1, “Biosensor Utilizing Pigment-Synthesizing Gene Of A Purple Non-Sulfur Bacterium And A Method For Preparing Such A Biosensor” (priority 2004, published 2008).

Assays:
[1] = tested on: ddhA gene (promoter Pddh of ddh operon); assay: RT-PCR analysis of ddhA gene transcription induction by sulfur compounds; format: cell-based, Rv. sulfidophilum W-1S; settings: 3 days in 4CMOM medium, bright aerobic and dark aerobic condition
Procedure: Extraction of RNA was carried out using RNeasy Mini Kit (QIAGEN) according to the protocol attached thereto. For dissolving the cells at that time, lysozyme was added thereto in the indicated concentration. For the removal of the contaminated DNA, DNase I (TaKaRa) was used by the method indicated in the protocol together with the buffer attached thereto. Incubation was carried out at 37° C. for 30 minutes and, after that, RNA was purified via a PCI treatment and a precipitating operation with ethanol. A reverse transcription reaction was carried out where 1 μg of purified RNA as a template using an RNA PCR Kit (AMV) Ver. 2.1 (TaKaRa). In the reverse transcription reaction, things contained in the kit, i.e. reverse transcriptase, RNase inhibitor, random nonamer, buffer, dNTP and MgCl2 were used and the reaction was conducted at 45° C. for 28 minutes. A PCR was carried out by the same manner as in the above mentioned “4: PCR” using 4 μl of the solution after the reverse transcription reaction as a template.
Firstly, investigation of a DMS-inductive property of Pddh was planned. Primers ddhA1 and ddhA2 were designed based on ddhA gene sequence on the database. […]

DMS biosensor strain = assay: Response of DMS biosensor strain (pSDMS in pigment variant): color tone and rate of red pigment by HPLC; format: cell-based, Rv. sulfidophilum; settings: third day of incubation, bright aerobic condition, n=3
Procedure: When incubation of a bacterium strain was conducted in 10 ml of medium in a test tube under various conditions (under slightly aerobic and bright condition; under slightly aerobic and dark condition; and under anaerobic and bright condition), the incubation was done for three days. The culture liquid (1 ml) was placed in an Eppendorf tube, the pellets after centrifugal separation was frozen at −80° C. for 2 hours and then freeze-dried for one night. An appropriate amount (100 μl to 500 μl) of a mixed liquid of acetone and methanol was added to the resulting freeze-dried product, subjected to vortex for 2 minutes and then centrifuged for 5 minutes at 14,000 rpm using a portable centrifuge and the resulting supernatant liquid was used as a sample for an HPLC. […]
Since DMS is hardly soluble in water, ethanol was used as a solvent for the manufacture of concentrated stocks and preparation of diluted series. […] Analysis of pigment composition was conducted via an HPLC analysis the same as before and, from the value of area of each peak shown in the resulting HPLC chart, rate of red pigments (DMSO and SO) to the sum of total carotenoid pigment (DMSO, DMSE, SO, SE and neurosporene) was calculated. For each sample, mean value and standard deviation was calculated from the above value and a graph was prepared. […]

SENS-AS strain = assay: Specificity of SENS-AS strain to metals other than arsenic; format: cell-based, Rv. sulfidophilum
Description: Therefore, specificity to metal of the SENS-AS strain was investigated by adding a sample containing metal other than arsenic to the SENS-AS strain and checking the responding property to those samples. With regard to the metal other than arsenic, there were used antimony and bismuth which have been reported to inherently show a responding property to ArsR and also cobalt, cadmium, nickel, zinc and lead where responding property in a protein having the similar sequence to metal-bonding site of ArsR has been confirmed already [L. S. Busenlehner, et al., (2003) FEMS Microbiol. Rev., 27:131-43]. The responding property was also tested for a solution in which iron, manganese, copper and aluminum which are abundantly contained in tap water were mixed. The experiment was carried out by the same method as in the detection of arsenic, rate of red pigments (DMSO and SO) to the total sum of DMSO, DMSE, SO and SE was calculated from the area value of each peak shown in the chart prepared as a result of an HPLC analysis, mean value and standard deviation for each sample were calculated and graphs were prepared.
From the above results, it was now made clear that the arsenic-detecting biosensor SENS-AS strain responded arsenic and bismuth. However, in order to respond to bismuth, a bismuth concentration of as high as 100-fold as compared with arsenic was necessary.

SMILES	ddhA gene transcription induction [1]	DMS concentration giving significant accumulation of SO and discriminable color tone (DMS biosensor strain) [mM]	concentration needed for response as compared with arsenic (SENS-AS strain) [fold]
CSC [DMS, dimethyl sulfide]	apparent ddhA gene transcription induction was observed	3	–
[Bi] [bismuth]	–	–	100
C[S+](C)[O-] [dimethyl sulfoxide]	no significant induction of ddhA gene transcription	–	–
